Reference: PMC7389528, “Anti-tubercular derivatives of rhein require activation by the monoglyceride lipase Rv0183” (The Cell Surface, 2020)
Values after ≈ are worked out from the molar mass of the structure shown. Where two headings read alike, the source gives them in different places.

Key:
[1] = Liver microsome stability assay, human; assay type: in vitro ADME; conditions: HLM, with NADPH, after 30 min, 1 μM compound
Procedure: (§1) The assay was performed with liver microsomes from male CD-1 mouse (Xenotech) and pooled human (Bioreclamation). Compounds HTB-03, HTB-04 and HTB-05 were tested at 1 μM with a final concentration of microsomal protein of 1 mg/mL. The reaction was initiated by the addition of NADPH (1 mM), and samples were incubated for up to […] at 37 °C in a shaking incubator. The reaction was terminated at 0, 5, 15 and 30 min by the addition of ice-cold ACN/MeOH (50:50) spiked with internal standard. Samples were centrifuged at 4000 rpm at 4 °C for 15 min and the supernatants analyzed by LC-MS/MS. The assay evaluated the metabolic stability of compounds by measuring the amount of parent remaining to test compounds with or without NADPH cofactor. LC-MS/MS: AB Sciex 4500 Qtrap; Kinetex 2.6 μm C18 100 Å column (3.0 mm × 30 mm); mobile phase A, 0.1% formic acid in H2O; mobile phase B, 0.1% formic acid in ACN; flow rate, 0.8 mL/min; room temperature.

[2] = test system: Mtb H37Rv; experiment: microbe, parasite or virus in culture; assay type: cell-based; conditions: Mycobacterium tuberculosis
[3] = Liver microsome stability assay, mouse; assay type: in vitro ADME, male CD-1 mouse; conditions: MLM, with NADPH, after 30 min, 1 μM compound
Procedure: as §1

[4] = test system: Vero cells; experiment: cells; assay type: cell-based; conditions: Chlorocebus sabaeus, MTT, cytotoxicity
[5] = 50 mM Tris pH 7.5, 200 mM NaCl, no enzyme, 37 °C, 1 h
[6] = test system: Mtb; design: method as in Gajadeera et al., 2015; conditions: ref Gajadeera et al., 2015, cited from earlier work
[7] = 50 mM Tris pH 7.5, 200 mM NaCl, 2% DMSO

| SMILES | Substrate remaining [1] [%] | MIC [2] [µM] | Substrate remaining [3] [%] | IC50 [4] [µM] | stability in the assay conditions (TLC) [5] | anti-tubercular activity [6] | anti-tubercular activity ([6]; listed as rhein) | solubility in the assay conditions [7] |
| --- | --- | --- | --- | --- | --- | --- | --- | --- |
| O=C(OCCCCCl)c1cc(O)c2c(c1)C(=O)c1cccc(O)c1C2=O [HTB-03] | 92.8 | 2.56 (≈ 0.959 µg/mL) | 66.3 | > 171 | appeared stable | – | – | – |
| CC(=O)Oc1cccc2c1C(=O)c1c(OC(C)=O)cc(C(=O)OC3C(C)CCCC3C)cc1C2=O (stereo not shown) [HTB-06] | – | 7.31 (≈ 3.5 µg/mL) | – | 58.1 | – | – | – | – |
| O=C(O)c1cc(O)c2c(c1)C(=O)c1cccc(O)c1C2=O [Rhein, rhein] | – | 106 (≈ 30.2 µg/mL) | – | 182 | – | does not exhibit anti-tubercular activity | does not inhibit Mtb | – |
| NNC(=O)c1ccncc1 [INH, isoniazid, reference compound] | – | 0.26 (≈ 0.0357 µg/mL) | – | – | – | – | – | – |
| CC(=O)Oc1cccc2c1C(=O)c1c(OC(C)=O)cc(C(=O)OCCCCCl)cc1C2=O [HTB-04] | 82.4 | 3.55 (≈ 1.63 µg/mL) | 79.8 | 84 | – | – | – | limited solubility |
| CC(=O)Oc1cccc2c1C(=O)c1c(OC(C)=O)cc(C(=O)O)cc1C2=O [Diacerein, diacerein, reference compound] | – | > 86.9 | – | 161 | degraded to rhein | – | – | – |
| COC(=O)c1cc(O)c2c(c1)C(=O)c1cccc(O)c1C2=O [HTB-01] | – | 6.37 (≈ 1.9 µg/mL) | – | > 215 | – | – | – | – |
| COC(=O)c1cc(OC(C)=O)c2c(c1)C(=O)c1cccc(OC(C)=O)c1C2=O [HTB-02] | – | 5.13 (≈ 1.96 µg/mL) | – | 15.5 | – | – | – | – |
| CC1CCCC(C)C1OC(=O)c1cc(O)c2c(c1)C(=O)c1cccc(O)c1C2=O (stereo not shown) [HTB-05] | 67.8 | 3.9 (≈ 1.54 µg/mL) | 42.9 | > 162 | – | – | – | – |
